The record followed here is patent US8183263B2 (priority 2007, dated 2012).

SMILES strings stand for the structures.

One assay concerns HCV replicon. Briefly: HCV replicon replication assay (NPT level by captured ELISA). The conditions noted are these: Hepatitis C virus, 72 h; Huh-7 HCV replicon-containing cells, three days incubation; read-out: Activity (inhibition of HCV replicon replication). It is filed as cell-based. The method in brief: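 Huh-7 cells carrying HCV subgenomic replicon (NS3–NS5B, neo reporter) treated 3 days at 37 °C with 6 concentrations from 10 to 0.03 micromolar in G418-free medium, equal DMSO across wells. Replication measured on day four as NPTII level by in-cell captured ELISA on fixed cells; interferon alpha as positive control.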
With `CC(=O)c1cc(Nc2nc(-c3cccnc3)c(F)s2)ccc1Oc1ccc(Cl)cc1` [Cmp 130, 1-(2-(4-chlorophenoxy)-5-(5-fluoro-4-(pyridin-3-yl)thiazol-2-ylamino)phenyl)ethanone], the EC50 was less than 1000 nM. Still for that read-out and setting: next, `CCc1ccc(Oc2ccc(Nc3nc(-c4cccnc4)c(F)s3)cc2C(C)=O)cc1` [Cmp 131, 1-(2-(4-ethylphenoxy)-5-(5-fluoro-4-(pyridin-3-yl)thiazol-2-ylamino)phenyl)ethanone]: less than 1000 nM; `FC(F)(F)c1cc(Nc2nc(-c3cccnc3)cs2)ccc1CCCCOc1ccccc1` [Cmp 132]: less than 1000 nM; `CCCCCCCCc1cc2ccc(Nc3nc(-c4cccnc4)c(F)s3)cc2o1` [Cmp 133, 5-fluoro-N-(2-octylbenzofuran-6-yl)-4-(pyridin-3-yl)thiazol-2-amine]: less than 1000 nM. For `CCCCCCCCc1ccc(Nc2nc(-c3ccc(OC(=O)[C@@H](N)C(C)C)nc3)cs2)cc1C(F)(F)F` [Cmp 135, (S)-5-(2-(4-octyl-3-(trifluoromethyl)phenylamino)thiazol-4-yl)pyridin-2-yl 2-amino-3-methylbutanoate], the EC50 lay within 1000 to 10000 nM. On the same count and under the same terms, with `Fc1sc(Nc2ccc(CCCCOc3ccccc3)c(C(F)(F)F)c2)nc1-c1cccnc1` [Cmp 136, 5-fluoro-N-(4-(4-phenoxybutyl)-3-(trifluoromethyl)phenyl)-4-(pyridin-3-yl)thiazo1-2-amine] the figure was less than 1000 nM; with `FC(F)(F)c1cc(Nc2nc(-c3cccnc3)cs2)ccc1OCCCCc1ccncc1` [Cmp 137, 4-(pyridin-3-yl)-N-(4-(4-(pyridin-4-yl)butoxy)-3-(trifluoromethyl)phenyl)thiazol-2-amine], less than 1000 nM; with `CCCCCCCCc1c(F)cc(Nc2nc(-c3cccnc3)c(F)s2)cc1F` [Cmp 138, N-(3,5-difluoro-4-octylphenyl)-5-fluoro-4-(pyridin-3-yl)thiazol-2-amine], less than 1000 nM. As to `Fc1sc(Nc2ccc(OCCOc3ccccc3)c(C(F)(F)F)c2)nc1-c1cccnc1` [Cmp 139, 5-fluoro-N-(4-(2-phenoxyethoxy)-3-(trifluoromethyl)phenyl)-4-(pyridin-3-yl)thiazol-2-amine], the EC50 is less than 1000 nM. As for `CCCCCCCCOc1ccc(Nc2nc(-c3cccnc3)cs2)cc1C(C)=O` [Cmp 140, 1-(2-(octyloxy)-5-(4-(pyridin-3-yl)thiazol-2-ylamino)phenyl)ethanone], the EC50 is less than 1000 nM. Turning to `CCCCCCCCOc1ccc(Nc2nc(-c3cccnc3)c(F)s2)cc1` [Cmp 141, 5-fluoro-N-(4-(octyloxy)phenyl)-4-(pyridin-3-yl)thiazol-2-amine], the EC50 is less than 1000 nM. As for `CCCCCCCCOc1ccc(Nc2nc(-c3ccc[n+](C)c3)cs2)cc1C(F)(F)F` [Cmp 142, 1-methyl-3-(2-(4-(octyloxy)-3-(trifluoromethyl)phenylamino)thiazol-4-yl)pyridinium], the EC50 was in the range of 1000 to 10000 nM. As to `CCCCCCCCOc1ccc(Nc2ncc(Br)s2)cc1C(F)(F)F` [Cmp 143, 5-bromo-N-(4-(octyloxy)-3-(trifluoromethyl)phenyl)thiazol-2-amine], the EC50 was less than 1000 nM. Turning to `CCCCCCCCOc1ccc(Nc2ncc(Oc3cccnc3)s2)cc1C(F)(F)F` [Cmp 144, N-(4-(octyloxy)-3-(trifluoromethyl)phenyl)-5-(pyridin-3-yloxy)thiazol-2-amine], the EC50 was less than 1000 nM. As to `FC(F)(F)c1cc(Nc2nc(-c3cccnc3)cs2)ccc1OCCCCc1cnc2ccccc2c1` [Cmp 145, 4-(pyridin-3-yl)-N-(4-(4-(quinolin-3-yl)butoxy)-3-(trifluoromethyl)phenyl)thiazol-2-amine], the EC50 was less than 1000 nM. Regarding `CCCCCCCCOc1ccc(Nc2ncc(Sc3ccncc3)s2)cc1C(F)(F)F` [Cmp 146, N-(4-(octyloxy)-3-(trifluoromethyl)phenyl)-5-(pyridin-4-ylthio)thiazol-2-amine], the EC50 lay within 1000 to 10000 nM. Turning to `O=c1cc(-c2ccccc2)oc2ccc(Nc3nc(-c4cccnc4)cs3)cc12` [Cmp 148, 2-phenyl-6-(4-(pyridin-3-yl)thiazol-2-ylamino)-4H-chromen-4-one], the EC50 is greater than 10000 nM. Turning to `CCCCCCCCOc1ccc(Nc2nc(-c3cccnc3)c(F)s2)cc1C(C)=O` [Cmp 149, 1-(5-(5-fluoro-4-(pyridin-3-yl)thiazol-2-ylamino)-2-(octyloxy)phenyl)ethanone], the EC50 is less than 1000 nM.

As to `CC(C)(C)c1cc2cc(Nc3nc(-c4cccnc4)cs3)ccc2o1` [Cmp 150, N-(2-tert-butylbenzofuran-5-yl)-4-(pyridin-3-yl)thiazol-2-amine], the EC50 is less than 1000 nM.

Take `CCCCCCCCOc1ccc(Nc2nc(-c3cccnc3)cs2)cc1S(C)(=O)=O` [Cmp 151, N-(3-(methylsulfonyl)-4-(octyloxy)phenyl)-4-(pyridin-3-yl)thiazol-2-amine]: the EC50 was less than 1000 nM. On the same count and under the same terms, with `CCCCCCCCOc1ccc(Nc2nc(-c3cncc(O)c3)cs2)cc1C(F)(F)F` [Cmp 152, 5-(2-(4-(octyloxy)-3-(trifluoromethyl)phenylamino)thiazol-4-yl)pyridin-3-ol] the figure was less than 1000 nM. Consider `c1ccc(CCc2cc3cc(Nc4nc(-c5cccnc5)cs4)ccc3o2)cc1` [Cmp 153, N-(2-phenethylbenzofuran-5-yl)-4-(pyridin-3-yl)thiazol-2-amine], for which the EC50 was less than 1000 nM. The same measure, in the same setting: with `CCCCCCCCOc1ccc(Nc2nc(-c3cccnc3)cs2)cc1C(=O)OC` [Cmp 154, methyl 2-(octyloxy)-5-(4-(pyridin-3-yl)thiazol-2-ylamino)benzoate] the figure was less than 1000 nM; with `CCCCCCCCOc1ccc(Nc2nc(-c3cccnc3)cs2)cc1C(=O)O` [Cmp 155, 2-(octyloxy)-5-(4-(pyridin-3-yl)thiazol-2-ylamino)benzoic acid], greater than 10000 nM. For the compound `CCCCCCCCOc1ccc(Nc2nc(-c3cccnc3)cs2)cc1C(N)=O` [Cmp 156, 2-(octyloxy)-5-(4-(pyridin-3-yl)thiazol-2-ylamino)benzamide], the EC50 is less than 1000 nM.

Turning to `CCCCCCCCOc1ccc(Nc2nc(-c3cccnc3)c(CN(C)C)s2)cc1C(F)(F)F` [Cmp 157, 5-((dimethylamino)methyl)-N-(4-(octyloxy)-3-(trifluoromethyl)phenyl)-4-(pyridin-3-yl)thiazol-2-amine], the EC50 lay within 1000 to 10000 nM. On to `CCCCCCCCN(C)c1ccc(Nc2nc(-c3cccnc3)c(Cl)s2)cc1C(F)(F)F` [Cmp 158, N^4-(5-chloro-4-(pyridin-3-yl)thiazol-2-yl)-N^1-methyl-N^1-octyl-2-(trifluoromethyl)benzene-1,4-diamine], for which the EC50 was less than 1000 nM.

As for `CCCCCCCCOc1ccc(N(C)c2nc(-c3cccnc3)c(F)s2)cc1C(F)(F)F` [Cmp 159, 5-fluoro-N-methyl-N-(4-(octyloxy)-3-(trifluoromethyl)phenyl)-4-(pyridin-3-yl)thiazol-2-amine], the EC50 is less than 1000 nM. Turning to `CCCCCCCCc1ccc(N(C)c2nc(-c3cccnc3)c(F)s2)cc1C(F)(F)F` [Cmp 160, 5-fluoro-N-methyl-N-(4-octyl-3-(trifluoromethyl)phenyl)-4-(pyridin-3-yl)thiazol-2-amine], the EC50 was 1000 to 10000 nM.

The same assay, now with this note: Hepatitis C virus, Huh-7, 72 h, read-out: Activity (inhibition of HCV replicon replication).
With `CCCCCCCCc1ccc(Nc2nc(-c3ccc(OP(=O)(OC)OC)nc3)cs2)cc1C(F)(F)F` [Cmp 134, dimethyl 5-(2-(4-octyl-3-(trifluoromethyl)phenylamino)thiazol-4-yl)pyridin-2-yl phosphate], the EC50 was less than 1000 nM.
